Measured values taken from US20100331348A1, “TROPANE DERIVATIVES USEFUL AS PESTICIDES” (SYNGENTA CROP PROTECTION, INC., priority 2007, published 2010).
Where two headings read alike, the source gives them in different places.

Columns and labels:
[1] = test system: Pyricularia oryzae; assay: whole plant or invertebrate; assay type: in vivo; details: foliar, 96 h
[2] = test system: Phytophthora infestans; assay: whole plant or invertebrate; assay type: in vivo; details: foliar, 96 h, read-out: control of fungal infection, Phytophthora infestans
[3] = test system: Pythium ultimum; assay: Pythium ultimum (Damping off) growth inhibition in potato dextrose broth; assay type: cell-based; details: Globisporangium ultimum, 48 hours, read-out: control of fungal infection, Pythium ultimum
[4] = test system: Spodoptera littoralis; assay: Spodoptera littoralis (Egyptian cotton leafworm) cotton leaf disc test; details: in Gossypium hirsutum, foliar, 72 h, read-out: control of Spodoptera littoralis
[5] = test system: Puccinia recondita f.sp. tritici; assay: Puccinia recondita f.sp. tritici (wheat brown rust) leaf disk assay; assay type: in vivo; details: foliar, 216 h, preventive, nine days after inoculation, read-out: control of fungal infection, Puccinia recondita f.sp. tritici
[6] = test system: Myzus persicae; assay: Myzus persicae (Green peach aphid) sunflower leaf disc test; details: foliar, 144 h, read-out: control of Myzus persicae
[7] = test system: Plutella xylostella; assay: Plutella xylostella (Diamond back moth) artificial diet test; details: 120 h, read-out: control of Plutella xylostella
[8] = test system: Aedes aegypti; assay: Aedes aegypti (Yellow fever mosquito) larvae test; assay type: in vivo; details: 48 h
[9] = test system: Erysiphe graminis f.sp. tritici; assay: Erysiphe graminis f.sp. tritici (wheat powdery mildew) leaf disk assay; assay type: in vivo; details: Blumeria graminis, foliar, 96 h, preventive, four days after inoculation, read-out: control of fungal infection, Erysiphe graminis fsp. tritici
[10] = test system: Heliothis virescens; assay: Heliothis virescens (Tobacco budworm) egg test on artificial diet; details: 96 h, read-out: control of Heliothis virescens
[11] = test system: Tetranychus urticae; details: foliar, 192 h, read-out: control of Tetranychus urticae
[12] = test system: Septoria tritici; assay: Septoria tritici (leaf blotch) growth inhibition in nutrient broth; assay type: cell-based; details: Zymoseptoria tritici, 72 hrs, read-out: control of fungal infection, Septoria tritici
[13] = test system: Plasmopara viticola; assay: Plasmopara viticola (downy mildew of grapevine) leaf disk assay; assay type: in vivo; details: foliar, 168 h, preventive, seven days after inoculation, read-out: control of fungal infection, Plasmopara viticola
[14] = read-out: control of fungal infection, Pyricularia oryzae (at least 60% list)
[15] = read-out: control of fungal infection, Pyricularia oryzae (at least 80% list)

Row | Compound | pest or weed control at 200 ppm [1, 14] [%] | pest or weed control at 200 ppm [2] [%] | inhibition of growth at 200 ppm [3] [%] | pest or weed control at 200 ppm [4] [%] | pest or weed control at 200 ppm [5] [%] | pest or weed control at 200 ppm [6] [%] | pest or weed control at 200 ppm [7] [%] | pest or weed control at 2 ppm [8] [%] | pest or weed control at 200 ppm [9] [%] | pest or weed control at 200 ppm [1, 15] [%] | pest or weed control at 200 ppm [10] [%] | pest or weed control at 200 ppm [11] [%] | inhibition of growth at 200 ppm [12] [%] | pest or weed control at 200 ppm [13] [%]
1 | Fc1cc(Br)ccc1CON=C1CC2CCC(C1)N2c1ncnc2sccc12 [Example 5.232] | ≥ 60 | ≥ 80 | ≥ 60 | ≥ 80 | ≥ 80 | ≥ 80 | ≥ 80 | ≥ 80 | ≥ 80 |  |  |  |  | 
2 | CCc1ncnc(N2C3CCC2CC(=CCOc2ccc(C)nc2)C3)c1Cl [Example 3.14] |  |  |  | ≥ 80 | ≥ 80 | ≥ 80 |  | ≥ 80 |  | ≥ 80 | ≥ 80 | ≥ 80 | ≥ 60 | 
3 | Cc1ccc(C=C2CC3CCC(C2)N3c2ncnc3sccc23)cc1 [Example 3.32] | ≥ 60 |  |  | ≥ 80 | ≥ 80 | ≥ 80 | ≥ 80 | ≥ 80 |  | ≥ 80 | ≥ 80 | ≥ 80 |  | ≥ 80
4 | CCc1ncnc(N2C3CCC2CC(=NOCc2ccc(F)cc2)C3)c1Cl [Example 5.30] | ≥ 60 |  |  | ≥ 80 | ≥ 80 | ≥ 80 | ≥ 80 | ≥ 80 | ≥ 80 |  | ≥ 80 |  |  | 
